Results as given in patent publication US8957060B2, “Tumescent antibiotic solution” (priority 2004, dated 2015).
≈ marks a conversion by molar mass, not a printed value. Where two headings read alike, the source gives them in different places.

Assays:
[1] = test system: Staphyloccus aureus (MRSA) ATCC 33592; experiment: Minimum Inhibitory Concentration (MIC), dilution method; settings: Staphylococcus aureus, 48 h, read-out: MIC end point
Description: Following inoculation, survival of test microorganisms was determined. This method of determining MIC was based on the method described in the NCCLS document M7: Methods for Dilution Antimicrobial Susceptibility Tests for Bacteria that Grow Aerobically; Approved Standard—Seventh Edition.

[2] = test system: Staphyloccus aureus (MRSA) ATCC 33592; experiment: Minimum Bactericidal Concentration (MBC); type: cell-based; settings: Staphylococcus aureus, read-out: MBC end point
Source text: Determinations of MBC followed the method described in “Report on the Working Party on Antibiotic Sensitivity Testing of the British Society of Antimicrobial Chemotherapy: A Guide to Sensitivity Testing.”

[3] = cited from earlier work
[4] = cited from earlier work; remark: listed apart in the source
[5] = test system: platelet aggregation induced by ADP, epinephrine and collagen; settings: cited from earlier work
[6] = Pharmacokinetics of TAD vs IVAD (cefazolin, metronidazole): AUC and Cmax in TISF and serum
Description: A clinical pharmacologic investigation was conducted to compare the pharmacokinetic advantages of two modes of systemic antibiotic delivery, Tumescent antibiotic delivery (TAD), which involves the delivery of a relatively large volume of an antibiotic-containing solution to the subcutaneous compartment, and intravenous antibiotic delivery (IVAD), which results in direct delivery of antibiotics to the blood stream, for prophylaxis of SSI. […] Methods
With Institutional Review Board (IRB) approval, the absorption pharmacokinetics of tumescent antibiotic delivery (TAD) and intravenous antibiotic delivery (IVAD) were tested in human subjects and the antibiotic delivery modes were evaluated with respect to the area under the curve (AUC) of antibiotic concentration as a function of time and peak antibiotic concentration (Cmax) in serum and TISF. 4 female subjects participated in at least one study, one subject volunteered for 2 separate studies. 5 studies were conducted: 3 involved TAD to the abdomen, 1 involved TAD to the hips and outer thighs and 1 involved TAD to the breasts. […] Each of the 5 studies consisted of 2 to 3 pharmacokinetic procedures, for a total of 14 procedures. Any procedures conducted on an individual subject were separated by at least one week. In 13 procedures only IVAD or TAD, was used. In one procedure both IVAD and TAD were used concurrently, with IVAD started and finished within five minutes after completing TAD.
TAD was conducted as described herein. Following TAD, sequential 10 ml samples of tumescent adipose tissue were obtained using a hand-held syringe-liposuction technique. Sampling began immediately after completing the TAD infiltration (T0), and continuing until the patients reported significant discomfort. Liposuction aspirate samples were obtained at 0, 1, 2, 3, 4, 6, and 8 hours in all procedures; in 4 TAD procedures, sampling continued until 10 hours. Sequential serum samples for measurement of antibiotic concentration in serum after TAD ([Serum]TAD) were obtained simultaneously.
For IVAD, the antibiotic was delivered into an antecubital vein. […]

Structure (SMILES): Cc1nnc(SCC2=C(C(=O)O)N3C(=O)[C@@H](NC(=O)Cn4cnnn4)[C@H]3SC2)s1 [Cefazolin]
- MIC [1]: 250 µg/mL (≈ 550 µM)
- MBC ([2]; 24 h, Day 1): 250 µg/mL (≈ 550 µM)
- MBC ([2]; 48 h, Day 2): 250 µg/mL (≈ 550 µM)

Structure (SMILES): CCN(CC)CC(=O)Nc1c(C)cccc1C [Lidocaine]
- duration of local anesthesia ([3]; 1% or 2% commercial concentrations of lidocaine with epinephrine): 2 to 3 h
- persistence of profound surgical local anesthesia ([3]; tumescent local anesthesia (TLA)): 6 to 8 h
- dosage limitation approved by the FDA ([4]; infiltration local anesthesia, commercial lidocaine (1%) with epinephrine (1:100,000)): 7 mg/kg
- maximum safe mg/kg dosage (estimated) ([4]; tumescent lidocaine, TLA without liposuction, adults): 30 mg/kg
- concentration that consistently inhibits in-vitro platelet aggregation ([5]; aggregation induced by ADP, epinephrine and collagen): ≥ 0.5 mg/mL
- safe systemic concentration with no effect on platelet aggregation [5]: ≤ 6 micrograms/ml

Structure (SMILES): Cc1ncc([N+](=O)[O-])n1CCO [Metronidazole]
- AUC[Serum]IVAD ([6]; Study 5, 600 mg metronidazole IVAD): 127
- period in which serum concentration of metronidazole exceeds 4 μg/ml ([6]; female, human, in vivo): 0 to 12 h

Structure (SMILES): CO[C@@]1(NC(=O)Cc2cccs2)C(=O)N2C(C(=O)O)=C(COC(N)=O)CS[C@@H]21 [cefoxitin]
- times greater antibiotic exposure in ISF by TAD than by IVAD (150×AUC[ISF]IVAD<AUC[TISF]TAD) ([6]; human, in vivo): 150
